{"source": "ChEMBL document CHEMBL5331114", "about": "“Discovery of Pyxinol Amide Derivatives Bearing Amino Acid Residues as Nonsubstrate Allosteric Inhibitors of P-Glycoprotein-Mediated Multidrug Resistance” (J Med Chem, 2023)", "key": {"[1]": {"assay": "Induction of cell cycle arrest in human KBV cells assessed as accumulation of cells at G2-M phase at 10 uM incubated for 24 hrs by flow cytometry analysis (reference value: 24.94 +/- 0.21%)", "assay_type": "functional"}, "[2]": {"target": "T1, ATP-dependent translocase ABCB1 (Homo sapiens, UniProt P08183)", "T1 sequence (P08183 whole entry)": "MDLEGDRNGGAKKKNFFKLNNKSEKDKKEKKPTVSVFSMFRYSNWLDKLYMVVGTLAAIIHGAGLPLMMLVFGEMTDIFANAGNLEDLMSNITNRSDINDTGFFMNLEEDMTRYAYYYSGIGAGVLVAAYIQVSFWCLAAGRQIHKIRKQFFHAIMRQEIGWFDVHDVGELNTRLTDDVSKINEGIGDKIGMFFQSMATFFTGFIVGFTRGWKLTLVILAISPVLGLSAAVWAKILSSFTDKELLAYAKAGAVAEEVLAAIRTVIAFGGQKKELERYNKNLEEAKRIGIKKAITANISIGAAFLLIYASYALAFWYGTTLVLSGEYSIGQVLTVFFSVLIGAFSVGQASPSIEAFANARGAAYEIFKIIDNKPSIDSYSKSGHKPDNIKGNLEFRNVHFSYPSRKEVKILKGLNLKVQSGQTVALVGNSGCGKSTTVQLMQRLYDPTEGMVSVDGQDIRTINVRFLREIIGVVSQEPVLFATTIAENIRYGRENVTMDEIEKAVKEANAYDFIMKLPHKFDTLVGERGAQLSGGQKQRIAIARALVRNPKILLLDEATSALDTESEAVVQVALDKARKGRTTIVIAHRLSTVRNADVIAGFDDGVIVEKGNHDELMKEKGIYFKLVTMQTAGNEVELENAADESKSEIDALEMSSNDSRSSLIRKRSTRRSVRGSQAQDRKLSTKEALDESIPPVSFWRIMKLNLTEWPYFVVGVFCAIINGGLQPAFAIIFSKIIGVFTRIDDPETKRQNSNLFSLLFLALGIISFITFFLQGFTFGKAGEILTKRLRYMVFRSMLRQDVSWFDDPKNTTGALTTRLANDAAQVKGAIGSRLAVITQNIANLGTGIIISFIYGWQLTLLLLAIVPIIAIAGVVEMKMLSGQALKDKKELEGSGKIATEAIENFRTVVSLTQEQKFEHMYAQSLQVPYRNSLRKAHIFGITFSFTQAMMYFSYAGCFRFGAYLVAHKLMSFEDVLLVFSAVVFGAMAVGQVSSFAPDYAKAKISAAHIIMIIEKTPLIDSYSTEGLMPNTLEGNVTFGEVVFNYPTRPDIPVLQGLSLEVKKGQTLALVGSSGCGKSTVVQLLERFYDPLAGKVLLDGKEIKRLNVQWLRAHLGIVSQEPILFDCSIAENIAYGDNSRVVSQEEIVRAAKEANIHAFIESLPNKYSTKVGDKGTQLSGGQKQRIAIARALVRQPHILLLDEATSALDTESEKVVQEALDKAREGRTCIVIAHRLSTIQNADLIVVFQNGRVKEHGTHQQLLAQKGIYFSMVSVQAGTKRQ", "assay": "Negative allosteric modulator activity at P-glycoprotein in human KBV cells assessed as effect on P-gp protein expression level at 10 uM incubated for 72 hrs by Western blotting analysis", "assay_type": "cell-based"}, "[3]": {"target": "T1, ATP-dependent translocase ABCB1", "assay": "Negative allosteric modulator activity at human P-gp ATP synthase hydrolytic activity assessed as inhibition of basal Pgp-ATPase activity at 1 mM incubated for 60 mins in presence of ATP by Glo-luminescence based microplate reader assay", "details": "1 h, 1000 µM"}, "[4]": {"system": "KBV", "assay": "Chemo-sensitizing activity against Ptx-resistance human KBV cells xenografted in BALB/c mouse assessed as inhibition of tumor growth at 20 mg/kg,ip measured after 23 days", "assay_type": "functional, organism-based", "details": "time 23.0 day"}, "[5]": {"target": "Multidrug resistance-associated protein 1 (Homo sapiens, UniProt P33527)", "sequence (P33527 whole entry)": "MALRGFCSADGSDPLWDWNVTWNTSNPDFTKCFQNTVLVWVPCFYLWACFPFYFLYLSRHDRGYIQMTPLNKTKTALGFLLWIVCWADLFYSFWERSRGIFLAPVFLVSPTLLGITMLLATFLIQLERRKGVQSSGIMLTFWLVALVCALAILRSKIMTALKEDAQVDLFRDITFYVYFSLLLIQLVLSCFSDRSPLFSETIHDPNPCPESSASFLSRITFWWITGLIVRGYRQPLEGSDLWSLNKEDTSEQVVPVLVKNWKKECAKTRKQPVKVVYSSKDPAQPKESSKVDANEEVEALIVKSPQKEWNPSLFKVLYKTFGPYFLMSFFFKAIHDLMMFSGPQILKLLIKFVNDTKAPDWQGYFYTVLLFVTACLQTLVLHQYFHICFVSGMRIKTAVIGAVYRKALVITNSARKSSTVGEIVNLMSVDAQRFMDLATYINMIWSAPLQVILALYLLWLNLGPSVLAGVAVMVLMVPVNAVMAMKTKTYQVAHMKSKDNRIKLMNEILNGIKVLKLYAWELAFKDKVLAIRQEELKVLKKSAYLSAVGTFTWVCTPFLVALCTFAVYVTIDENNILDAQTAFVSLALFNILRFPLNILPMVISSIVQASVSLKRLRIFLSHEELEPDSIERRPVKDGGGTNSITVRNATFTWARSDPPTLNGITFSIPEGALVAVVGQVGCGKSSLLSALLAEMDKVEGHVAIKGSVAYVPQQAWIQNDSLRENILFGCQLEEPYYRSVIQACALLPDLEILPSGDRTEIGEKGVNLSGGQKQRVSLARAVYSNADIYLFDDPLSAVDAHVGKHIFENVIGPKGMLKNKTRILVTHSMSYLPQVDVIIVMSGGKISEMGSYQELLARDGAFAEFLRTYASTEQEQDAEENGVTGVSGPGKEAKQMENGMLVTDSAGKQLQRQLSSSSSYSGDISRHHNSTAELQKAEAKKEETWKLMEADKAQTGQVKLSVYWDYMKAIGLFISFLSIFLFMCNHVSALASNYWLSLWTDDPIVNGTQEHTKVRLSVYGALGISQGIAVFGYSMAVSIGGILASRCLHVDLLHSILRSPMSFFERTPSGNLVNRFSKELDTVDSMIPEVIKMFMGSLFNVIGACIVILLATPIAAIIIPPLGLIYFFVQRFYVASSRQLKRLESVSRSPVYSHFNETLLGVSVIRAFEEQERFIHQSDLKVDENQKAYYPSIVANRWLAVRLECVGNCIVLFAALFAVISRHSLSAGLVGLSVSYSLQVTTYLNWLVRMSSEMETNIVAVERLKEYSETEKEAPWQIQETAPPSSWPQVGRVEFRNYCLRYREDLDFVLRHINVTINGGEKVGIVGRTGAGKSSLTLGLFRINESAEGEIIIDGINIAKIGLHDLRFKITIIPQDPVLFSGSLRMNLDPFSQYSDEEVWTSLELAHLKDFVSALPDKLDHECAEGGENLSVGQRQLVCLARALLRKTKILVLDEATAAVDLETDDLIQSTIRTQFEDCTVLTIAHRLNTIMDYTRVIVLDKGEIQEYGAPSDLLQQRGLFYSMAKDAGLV", "assay": "Binding affinity to ABCC1 in human KBV cells assessed as stabilization of ABCC1 at 50 uM incubated for 26 hrs by western blot based cellular thermal shift assay", "assay_type": "cell-based"}, "[6]": {"assay": "Drug accumulation in human KBV cells at 10 uM incubated for 4 hrs by LC-MS/MS analysis", "assay_type": "ADME, cell-based"}, "[7]": {"assay": "Induction of Ptx-mediated cell cycle arrest in human KBV cells assessed as accumulation of cells at Sub-G1 phase at 5 uM incubated for 24 hrs in presence of paclitaxel by flow cytometry analysis (reference value: 1.21 +/- 0.3%)", "assay_type": "functional"}, "[8]": {"assay": "Induction of cell cycle arrest in human KBV cells assessed as accumulation of cells at Sub-G1 phase at 5 uM incubated for 24 hrs by flow cytometry analysis (reference value: 1.24 +/- 0.14%)", "assay_type": "functional"}, "[9]": {"target": "T1, ATP-dependent translocase ABCB1", "assay": "Binding affinity to P-glycoprotein in human KBV cells assessed as stabilization of P-glycoprotein at 50 uM incubated for 26 hrs by western blot based cellular thermal shift assay", "assay_type": "cell-based"}, "[10]": {"assay": "Reversal of multidrug resistance in human KBV Cells assessed as increase in PTX-induced cytotoxicity by measuring cell survival rate at 10 uM incubated for 72 hrs in presence of paclitaxel by MTT assay relative to control", "assay_type": "functional", "details": "read-out: Survival"}, "[11]": {"assay": "Toxicity against BALB/c mouse xenografted with Ptx-resistance human KBV cells at 20 mg/kg,ip measured after 23 days", "assay_type": "organism-based", "details": "in vivo, 552 h, time 23 day"}, "[12]": {"assay": "Induction of Ptx-mediated cell cycle arrest in human KBV cells assessed as accumulation of cells at S phase at 10 uM incubated for 24 hrs in presence of paclitaxel by flow cytometry analysis (Rvb =16.63 +/- 0.4%)", "assay_type": "functional"}, "[13]": {"assay": "Induction of Ptx-mediated cell cycle arrest in human KBV cells assessed as accumulation of cells at G1-G0 phase at 5 uM incubated for 24 hrs in presence of paclitaxel by flow cytometry analysis (Rvb =57.76 +/- 0.78%)", "assay_type": "functional"}, "[14]": {"assay": "Induction of cell cycle arrest in human KBV cells assessed as accumulation of cells at Sub-G1 phase at 10 uM incubated for 24 hrs by flow cytometry analysis (reference value: 1.24 +/- 0.14%)", "assay_type": "functional"}, "[15]": {"assay": "Drug accumulation in human KB cells at 10 uM incubated for 4 hrs by LC-MS/MS analysis", "assay_type": "ADME, cell-based"}, "[16]": {"assay": "Reversal of multidrug resistance in human KBV Cells assessed as reversal fold of paclitaxel IC50 at 10 uM incubated for 72 hrs in presence of paclitaxel by MTT assay", "assay_type": "functional"}, "[17]": {"target": "T1, ATP-dependent translocase ABCB1", "assay": "Negative allosteric modulator activity at P-glycoprotein mediated Rhodamine-123 efflux in human KBV cells assessed as increase in intracellular Rhodamine-123 accumulation incubated for 2 hrs in presence of Ptx-C by flow cytometry analysis", "assay_type": "cell-based"}, "[18]": {"target": "T2, P-gp (ABCB1) ATPase (Homo sapiens, UniProt P08183)", "T2 sequence (P08183 whole entry)": "as the sequence (P08183 whole entry) above", "assay": "Negative allosteric modulator activity at human P-gp ATP synthase hydrolytic activity assessed as inhibition of Vrp-stimulated Pgp-ATPase activity incubated for 60 mins in presence of ATP by Glo-luminescence based microplate reader assay relative to DMSO", "details": "probe Vrp (stimulator of the ATPase activity)"}, "[19]": {"target": "T2, P-gp (ABCB1) ATPase", "assay": "Negative allosteric modulator activity at human P-gp ATP synthase hydrolytic activity assessed as inhibition of Vrp-stimulated Pgp-ATPase activity at 25 uM incubated for 60 mins in presence of ATP by Glo-luminescence based microplate reader assay relative to DMSO", "details": "probe Vrp (stimulator of the ATPase activity)"}, "[20]": {"assay": "Reversal of multidrug resistance in human KBV Cells assessed as reversal fold of paclitaxel IC50 at 5 uM incubated for 72 hrs in presence of paclitaxel by MTT assay", "assay_type": "functional"}, "[21]": {"assay": "Induction of Ptx-mediated cell cycle arrest in human KBV cells assessed as accumulation of cells at Sub-G1 phase at 10 uM incubated for 24 hrs in presence of paclitaxel by flow cytometry analysis (reference value: 1.21 +/- 0.3%)", "assay_type": "functional"}, "[22]": {"assay": "Induction of cell cycle arrest in human KBV cells assessed as accumulation of cells at G1-G0 phase at 5 uM incubated for 24 hrs by flow cytometry analysis (reference value: 62.34 +/- 0.24%)", "assay_type": "functional"}, "[23]": {"assay": "Reversal of multidrug resistance in human KBV Cells assessed as increase in PTX-induced cytotoxicity by measuring cell survival rate at 5 uM incubated for 72 hrs in presence of paclitaxel by MTT assay relative to control", "assay_type": "functional", "details": "read-out: Survival"}, "[24]": {"assay": "Induction of cell cycle arrest in human KBV cells assessed as accumulation of cells at S phase at 5 uM incubated for 24 hrs by flow cytometry analysis (reference value: 12.42 +/- 0.41%)", "assay_type": "functional"}, "[25]": {"assay": "Induction of Ptx-mediated cell cycle arrest in human KBV cells assessed as accumulation of cells at S phase at 5 uM incubated for 24 hrs in presence of paclitaxel by flow cytometry analysis (Rvb =16.63 +/- 0.4%)", "assay_type": "functional"}, "[26]": {"assay": "Induction of cell cycle arrest in human KBV cells assessed as accumulation of cells at S phase at 10 uM incubated for 24 hrs by flow cytometry analysis (reference value: 12.42 +/- 0.41%)", "assay_type": "functional"}, "[27]": {"target": "T1, ATP-dependent translocase ABCB1", "assay": "Negative allosteric modulator activity at P-glycoprotein mediated Rhodamine-123 efflux in human KBV cells assessed as increase in intracellular Rhodamine-123 accumulation at 10 uM incubated for 2 hrs in presence of Ptx-C by flow cytometry analysis", "assay_type": "cell-based"}, "[28]": {"assay": "Cytotoxicity against human KBV Cells assessed as cell survival rate at 10 uM incubated for 72 hrs by MTT assay", "assay_type": "functional", "details": "read-out: Survival"}, "[29]": {"assay": "Induction of cell cycle arrest in human KBV cells assessed as accumulation of cells at G2-M phase at 5 uM incubated for 24 hrs by flow cytometry analysis (reference value: 24.94 +/- 0.21%)", "assay_type": "functional"}, "[30]": {"target": "T1, ATP-dependent translocase ABCB1", "assay": "Negative allosteric modulator activity at P-glycoprotein mediated Rhodamine-123 efflux in human KBV cells assessed as increase in intracellular Rhodamine-123 accumulation incubated for 2 hrs by flow cytometry analysis", "assay_type": "cell-based"}, "[31]": {"assay": "Induction of cell cycle arrest in human KBV cells assessed as accumulation of cells at G1-G0 phase at 10 uM incubated for 24 hrs by flow cytometry analysis (reference value: 62.34 +/- 0.24%)", "assay_type": "functional"}}, "note": "The source made the active and inactive calls. The rule behind the calls is not given here.", "data": [{"smiles": "CC(C)(O)[C@H]1CC[C@@](C)([C@H]2CC[C@]3(C)[C@@H]2[C@H](O)C[C@@H]2[C@@]4(C)CC[C@H](NC(=O)[C@@H]5CCCN5)C(C)(C)[C@@H]4CC[C@]23C)O1", "values": [{"measurement": "Activity", "setting": "[1]", "result": 25.93, "unit": "%"}, {"measurement": "Activity", "setting": "[2]", "result": "Not Active"}, {"measurement": "inhibition (INH)", "setting": "[3]", "result": "Not Active"}, {"measurement": "Activity", "setting": "[4]", "result": "inactive"}, {"measurement": "Activity", "setting": "[5]", "result": "Not Active"}, {"measurement": "Drug uptake", "setting": "[6]", "result": "Active"}, {"measurement": "Activity", "setting": "[7]", "result": 11.4, "unit": "%"}, {"measurement": "Activity", "setting": "[8]", "result": 0.58, "unit": "%"}, {"measurement": "Activity", "setting": "[9]", "result": "Active"}, {"measurement": "viability at 10 µM", "setting": "[10]", "result": 30, "unit": "%"}, {"measurement": "Activity", "setting": "[11]", "result": "Non-Toxic"}, {"measurement": "Activity", "setting": "[12]", "result": 20.53, "unit": "%"}, {"measurement": "Activity", "setting": "[13]", "result": 45.93, "unit": "%"}, {"measurement": "Activity", "setting": "[14]", "result": 1, "unit": "%"}, {"measurement": "Drug uptake", "setting": "[15]", "result": "Active"}, {"measurement": "fold change (FC)", "setting": "[16]", "result": 67}, {"measurement": "Activity", "setting": "[17]", "result": "Dose-Dependent Effect"}, {"measurement": "inhibition at 1 h", "setting": "[18]", "result": 40, "unit": "%"}, {"measurement": "inhibition at 1 h, 25 µM", "setting": "[19]", "result": 60, "unit": "%"}, {"measurement": "fold change (FC)", "setting": "[20]", "result": 21}, {"measurement": "Activity", "setting": "[21]", "result": 8.58, "unit": "%"}, {"measurement": "Activity", "setting": "[22]", "result": 59.58, "unit": "%"}, {"measurement": "viability at 5 µM", "setting": "[23]", "result": 34, "unit": "%"}, {"measurement": "Activity", "setting": "[24]", "result": 13.38, "unit": "%"}, {"measurement": "Activity", "setting": "[25]", "result": 22, "unit": "%"}, {"measurement": "Activity", "setting": "[26]", "result": 13.74, "unit": "%"}, {"measurement": "Activity", "setting": "[27]", "result": "Not Active"}, {"measurement": "viability at 10 µM", "setting": "[28]", "result": 123, "unit": "%"}, {"measurement": "Activity", "setting": "[29]", "result": 27.12, "unit": "%"}, {"measurement": "Activity", "setting": "[30]", "result": "Dose-Dependent Effect"}, {"measurement": "Activity", "setting": "[31]", "result": 60.47, "unit": "%"}]}]}
